In patent US8471005B2 (Cephalon, Inc., priority 2008, dated 2013):
Like-named read-outs stand apart in the source and are kept apart here.

What was measured:
[1] = target: T1, ALK (Homo sapiens, UniProt Q9UM73); assay: ALK Kinase Assay (ELISA/TRF, PLC-γ substrate); format: biochemical; conditions: read-out: ALK Potency
T1 construct: host or cells: baculovirus expression system
In short: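 Read-out is time-resolved fluorescence from a Eu-N1-labeled PT66 antibody that binds phosphorylated PLC-γ, the substrate coated at 10 μg/mL in TBS. ALK at 30 ng/ml starts the reaction, which runs 15 minutes at 37° C.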

[2] = target: T2, JAK2 (Homo sapiens, UniProt O60674); assay: Recombinant Human JAK2 Kinase Assay (TRF); format: biochemical; conditions: read-out: JAK2 Potency
T2 construct: host or cells: baculovirus expression system
In short: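 Baculovirus-expressed JAK2 (15 ng/ml) phosphorylated a biotinylated 15-mer peptide captured on Neutravidin-coated plates, in 20 mM HEPES pH 7.2 with 0.2 μM ATP, 1 mM MnCl2, 0.1% BSA and 2.5% DMSO. Reaction ran 20 min at room temperature; phosphopeptide was detected by time-resolved fluorescence with Eu-N1-labelled PY100 antibody.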

[3] = ALK kinase inhibition, 1 μM ATP
[4] = JAK2 kinase inhibition, 0.2 μM ATP

T2 sequence (O60674 whole entry): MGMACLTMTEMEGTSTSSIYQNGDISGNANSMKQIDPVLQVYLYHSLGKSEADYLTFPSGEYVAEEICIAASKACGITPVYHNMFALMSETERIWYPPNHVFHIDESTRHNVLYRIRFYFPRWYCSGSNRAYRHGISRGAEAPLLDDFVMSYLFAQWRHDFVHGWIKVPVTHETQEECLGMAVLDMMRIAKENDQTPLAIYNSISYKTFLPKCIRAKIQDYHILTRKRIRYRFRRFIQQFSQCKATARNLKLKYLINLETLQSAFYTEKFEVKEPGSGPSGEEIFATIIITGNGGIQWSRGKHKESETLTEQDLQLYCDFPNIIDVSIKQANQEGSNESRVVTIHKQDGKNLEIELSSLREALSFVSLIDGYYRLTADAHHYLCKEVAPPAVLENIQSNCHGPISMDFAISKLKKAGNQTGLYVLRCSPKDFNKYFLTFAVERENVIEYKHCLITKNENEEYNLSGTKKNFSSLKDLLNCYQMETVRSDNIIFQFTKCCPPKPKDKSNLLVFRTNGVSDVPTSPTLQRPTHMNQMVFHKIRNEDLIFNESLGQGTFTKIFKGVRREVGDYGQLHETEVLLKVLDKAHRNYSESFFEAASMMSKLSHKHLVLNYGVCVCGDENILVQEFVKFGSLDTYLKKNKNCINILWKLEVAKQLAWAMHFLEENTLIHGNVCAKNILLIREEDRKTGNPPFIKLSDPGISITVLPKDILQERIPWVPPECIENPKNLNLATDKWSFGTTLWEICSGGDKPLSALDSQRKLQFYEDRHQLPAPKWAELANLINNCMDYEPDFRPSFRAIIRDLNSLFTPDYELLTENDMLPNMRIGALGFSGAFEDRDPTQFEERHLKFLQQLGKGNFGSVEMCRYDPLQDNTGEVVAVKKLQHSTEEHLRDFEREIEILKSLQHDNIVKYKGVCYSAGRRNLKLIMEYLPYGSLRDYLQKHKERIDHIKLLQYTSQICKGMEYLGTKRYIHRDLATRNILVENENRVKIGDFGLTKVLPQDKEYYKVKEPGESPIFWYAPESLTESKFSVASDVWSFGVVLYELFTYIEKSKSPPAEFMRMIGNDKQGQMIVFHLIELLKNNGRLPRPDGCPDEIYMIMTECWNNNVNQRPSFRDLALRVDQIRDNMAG
T1 sequence (Q9UM73 19-1620): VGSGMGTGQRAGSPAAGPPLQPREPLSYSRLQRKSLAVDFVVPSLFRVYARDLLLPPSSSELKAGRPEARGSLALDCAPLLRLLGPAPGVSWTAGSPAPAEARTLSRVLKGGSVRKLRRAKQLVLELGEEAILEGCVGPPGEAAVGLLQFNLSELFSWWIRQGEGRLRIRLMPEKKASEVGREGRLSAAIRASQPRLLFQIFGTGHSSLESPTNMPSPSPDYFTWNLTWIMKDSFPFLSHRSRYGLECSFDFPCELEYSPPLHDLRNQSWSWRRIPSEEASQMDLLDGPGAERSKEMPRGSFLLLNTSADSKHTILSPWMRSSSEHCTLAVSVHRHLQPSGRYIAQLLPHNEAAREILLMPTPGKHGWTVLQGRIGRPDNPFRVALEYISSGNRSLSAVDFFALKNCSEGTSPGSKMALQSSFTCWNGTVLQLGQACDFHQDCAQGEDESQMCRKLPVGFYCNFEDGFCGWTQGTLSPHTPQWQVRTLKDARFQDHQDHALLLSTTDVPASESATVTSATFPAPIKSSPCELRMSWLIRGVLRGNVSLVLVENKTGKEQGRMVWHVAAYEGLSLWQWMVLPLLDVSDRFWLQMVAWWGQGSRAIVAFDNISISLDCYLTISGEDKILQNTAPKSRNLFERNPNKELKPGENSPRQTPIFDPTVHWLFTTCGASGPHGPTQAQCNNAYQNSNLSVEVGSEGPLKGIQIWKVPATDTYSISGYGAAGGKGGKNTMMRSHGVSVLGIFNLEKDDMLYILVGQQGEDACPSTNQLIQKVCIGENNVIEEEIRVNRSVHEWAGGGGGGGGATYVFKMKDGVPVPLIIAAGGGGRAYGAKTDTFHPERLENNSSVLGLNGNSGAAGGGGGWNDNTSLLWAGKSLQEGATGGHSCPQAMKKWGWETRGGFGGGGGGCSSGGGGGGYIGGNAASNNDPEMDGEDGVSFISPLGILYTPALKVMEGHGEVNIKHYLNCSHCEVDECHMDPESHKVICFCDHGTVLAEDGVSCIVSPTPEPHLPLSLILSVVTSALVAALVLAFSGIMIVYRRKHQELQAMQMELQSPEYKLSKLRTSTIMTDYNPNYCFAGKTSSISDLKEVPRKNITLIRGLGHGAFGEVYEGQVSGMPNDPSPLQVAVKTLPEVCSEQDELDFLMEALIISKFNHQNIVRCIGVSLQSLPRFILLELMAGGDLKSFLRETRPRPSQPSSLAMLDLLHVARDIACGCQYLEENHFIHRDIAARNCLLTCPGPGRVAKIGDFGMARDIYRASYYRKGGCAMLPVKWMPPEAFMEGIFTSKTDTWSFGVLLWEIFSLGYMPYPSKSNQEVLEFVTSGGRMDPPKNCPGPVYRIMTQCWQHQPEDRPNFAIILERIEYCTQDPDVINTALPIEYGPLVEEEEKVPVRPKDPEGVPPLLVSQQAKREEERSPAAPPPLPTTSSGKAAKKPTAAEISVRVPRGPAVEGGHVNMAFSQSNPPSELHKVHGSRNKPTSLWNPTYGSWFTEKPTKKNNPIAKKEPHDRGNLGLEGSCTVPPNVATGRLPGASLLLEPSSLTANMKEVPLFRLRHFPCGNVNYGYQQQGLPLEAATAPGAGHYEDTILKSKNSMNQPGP

IC50 [1, 3] | IC50 [2, 4] | IC50 ([1]; ALK Kinase Inhibition) | IC50 ([2]; JAK2 Kinase Inhibition) | Compound
100 to 1000 nM | < 100 nM |  |  | Cn1cnc2ccc(Nc3ncc4ccc(-c5cccc(S(=O)(=O)CC6CC6)c5)n4n3)cc21 [Example 1320, [7-(3-Cyclopropylmethanesulfonyl-phenyl)-pyrrolo[2,1-f][1,2,4]triazin-2-yl]-(3-methyl-3H-benzimidazol-5-yl)-amine]
 |  | 1000 to 10000 nM | < 100 nM | COc1ccccc1-c1ccc2cnc(Nc3ccc4ncccc4c3)nn12 [Example 172, [7-(2-Methoxy-phenyl)-pyrrolo[2,1-f][1,2,4]triazin-2-yl]-quinolin-6-yl-amine]
100 to 1000 nM | < 100 nM |  |  | CN1CCN(c2ccc(Nc3ncc4cc(-c5cccc(CCC#N)c5)cn4n3)cc2)CC1 [Example 1161, 3-(3-{2-[4-(4-Methyl-piperazin-1-yl)-phenylamino]-pyrrolo[2,1-f][1,2,4]triazin-6-yl}-phenyl)-propionitrile]
 |  | 100 to 1000 nM | < 100 nM | CN1CCN(c2ccc(Nc3ncc4ccc(-c5cccc(NS(C)(=O)=O)c5)n4n3)cc2)CC1 [Example 379, N-(3-{2-[4-(4-Methyl-piperazin-1-yl)-phenylamino]-pyrrolo[2,1-f][1,2,4]triazin-7-yl}-phenyl)-methanesulfonamide]
 |  | 1000 to 10000 nM | < 100 nM | CN1C(=O)Cc2cc(Nc3ncc4ccc(-c5ccc(S(C)(=O)=O)cc5)n4n3)ccc21 [Example 373, 5-[7-(4-Methanesulfonyl-phenyl)-pyrrolo[2,1-f][1,2,4]triazin-2-ylamino]-1-methyl-1,3-dihydro-indol-2-one]
 |  | 100 to 1000 nM | < 100 nM | CS(=O)(=O)Nc1cccc(-c2ccc3cnc(Nc4ccc(N5CCOCC5)cc4)nn23)c1 [Example 201, N-{3-[2-(4-Morpholin-4-yl-phenylamino)-pyrrolo[2,1-f][1,2,4]triazin-7-yl]-phenyl}-methanesulfonamide]
100 to 1000 nM | < 100 nM |  |  | CC(C)(C)NS(=O)(=O)c1cccc(-c2ccc3cnc(Nc4cccc(N)c4)nn23)c1 [Example 896, 3-[2-(3-Amino-phenylamino)-pyrrolo[2,1-f][1,2,4]triazin-7-yl]-N-tert-butyl-benzenesulfonamide]
 |  | > 10000 nM | > 10000 nM | COc1ccccc1-c1ccc2cnc(C#N)nn12 [Example 1494, 7-(2-Methoxy-phenyl)-pyrrolo[2,1-f][1,2,4]triazine-2-carbonitrile]
< 100 nM | < 100 nM |  |  | COc1ccccc1-c1ccc2cnc(Nc3ccc(C4CCN(C(=O)N5CCN(C)CC5)CC4)cc3)nn12 [Example 501, (4-{4-[7-(2-Methoxy-phenyl)-pyrrolo[2,1-f][1,2,4]triazin-2-ylamino]-phenyl}-piperidin-1-yl)-(4-methyl-piperazin-1-yl)-methanone]
 |  | < 100 nM | < 100 nM | CCCS(=O)(=O)Nc1cccc(-c2ccc3cnc(Nc4ccc(N5CCN(C)CC5)cc4)nn23)c1 [Example 417, Propane-1-sulfonic acid (3-{2-[4-(4-methyl-piperazin-1-yl)-phenylamino]-pyrrolo[2,1-f][1,2,4]triazin-7-yl}-phenyl)-amide]
 |  | > 10000 nM | < 100 nM | CS(=O)(=O)c1ccc(-c2ccc3cnc(Nc4ccc5[nH]c(CN6CCOCC6)nc5c4)nn23)cc1 [Example 1541, [7-(4-Methanesulfonyl-phenyl)-pyrrolo[2,1-f][1,2,4]triazin-2-yl]-(2-morpholin-4-ylmethyl-1H-benzimidazol-5-yl)-amine]
100 to 1000 nM | < 100 nM |  |  | O=S(=O)(c1cccc(-c2ccc3cnc(Nc4ccc(C5CCN(CCO)CC5)cc4)nn23)c1)N1CCCC1 [Example 678, 2-[4-(4-{7-[3-(Pyrrolidine-1-sulfonyl)-phenyl]-pyrrolo[2,1-f][1,2,4]triazin-2-ylamino}-phenyl)-piperidin-1-yl]ethanol]
< 100 nM | < 100 nM |  |  | COc1cc(N2CCC(N3CCN(C)CC3)CC2)ccc1Nc1ncc2ccc(-c3cccc(S(=O)(=O)NC(C)(C)C)c3)n2n1 [Example 534, N-tert-Butyl-3-(2-{2-methoxy-4-[4-(4-methyl-piperazin-1-yl)-piperidin-1-yl]-phenylamino}-pyrrolo[2,1-f][1,2,4]triazin-7-yl)-benzene sulfonamide]
 |  | 1000 to 10000 nM | < 100 nM | CS(=O)(=O)c1ccc(-c2ccc3cnc(Nc4ccc(N5CCOCC5)nc4)nn23)cc1 [Example 60, [7-(4-Methanesulfonyl-phenyl)-pyrrolo[2,1-f][1,2,4]triazin-2-yl]-(6-morpholin-4-yl-pyridin-3-yl)-amine]
 |  | < 100 nM | < 100 nM | CC(=O)N1CCOc2ccc(Nc3ncc4ccc(-c5cccc(S(=O)(=O)NC(C)(C)C)c5)n4n3)cc21 [Example 1373, 3-[2-(4-Acetyl-3,4-dihydro-2H-benzo[1,4]oxazin-6-ylamino)-pyrrolo[2,1-f][1,2,4]triazin-7-yl]-N-tert-butyl-benzenesulfonamide]
100 to 1000 nM | < 100 nM |  |  | CN(c1cccc(-c2ccc3cnc(Nc4ccc(C5CCN(CC(N)=O)CC5)cc4)nn23)c1)S(C)(=O)=O [Example 959, 2-[4-(4-{7-[3-(Methanesulfonyl-methyl-amino)-phenyl]-pyrrolo[2,1-f][1,2,4]triazin-2-ylamino}-phenyl)-piperidin-1-yl]-acetamide]
 |  | 1000 to 10000 nM | < 100 nM | CC(=O)Nc1cccc(Nc2ncc3ccc(-c4cnn(C)c4)n3n2)c1 [Example 1378, N-{3-[7-(1-Methyl-1H-pyrazol-4-yl)-pyrrolo[2,1-f][1,2,4]triazin-2-ylamino]-phenyl}-acetamide]
100 to 1000 nM | < 100 nM |  |  | CS(=O)(=O)CCNCc1cccc(-c2ccc3cnc(Nc4ccc(N5CCOCC5)cc4)nn23)c1 [Example 1209, (7-{3-[(2-Methanesulfonyl-ethylamino)-methyl]-phenyl}-pyrrolo[2,1-f][1,2,4]triazin-2-yl)-(4-morpholin-4-yl-phenyl)-amine]
1000 to 10000 nM | 100 to 1000 nM |  |  | COc1ccccc1-c1cc2cnc(Nc3ccc(N4CCN(C)CC4)cc3)nn2c1 [Example 1156, [6-(2-Methoxy-phenyl)-pyrrolo[2,1-f][1,2,4]triazin-2-yl]-[4-(4-methyl-piperazin-1-yl)-phenyl]-amine]
100 to 1000 nM | < 100 nM |  |  | COc1cc(-c2ccc3cnc(Nc4ccc(C5CN(CC(N)=O)C5)cc4)nn23)c(OC)nn1 [Example 581, 2-(3-{4-[7-(3,6-Dimethoxy-pyridazin-4-yl)-pyrrolo[2,1-f][1,2,4]triazin-2-ylamino]-phenyl}-azetidin-1-yl)-acetamide]

Compound | IC50 [1, 3] | IC50 [2, 4] | IC50 ([1]; ALK Kinase Inhibition) | IC50 ([2]; JAK2 Kinase Inhibition)
CN1C2CCC1CC(c1ccc(Nc3ncc4ccc(-c5cccc(S(=O)(=O)NC(C)(C)C)c5)n4n3)cc1)C2 (stereo not drawn) [Example 943, N-tert-Butyl-3-{2-[4-(8-methyl-8-aza-bicyclo[3.2.1]oct-3-yl)-phenylamino]-pyrrolo[2,1-f][1,2,4]triazin-7-yl}-benzenesulfonamide] | 100 to 1000 nM | < 100 nM |  | 
